Experiment in all cases: inhibition of tumour cell growth, NCI panel, 48 h
Assay [1] concerns RXF 393 renal.
Assay [2] deals with KM12 colon.
For assay [3], the system named is HL-60(TB) leukemia.
The subject of assay [4] is RPMI-8226 leukemia.
Assay [5] concerns LOX IMVI melanoma.
In assay [6] the test system is OVCAR-5 ovarian.
Assay [7] concerns SF-268 CNS.
Assay [8] deals with SF-295 CNS.
Assay [9] relates to NCI-H23 lung.
For assay [10], the system named is CAKI-1 renal.

The structures appear in SMILES notation.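 Tested at 5 concentrations; 48 h exposure; 96-well plates; endpoints linearly interpolated, else capped at highest concentration. The concentration for 50% growth inhibition is given as GI50. TGI is the concentration that stops growth completely.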

As to `COc1ccc(C2=NN(c3ccccc3)C[N+](c3ccc(OC)cc3)=N2)cc1`, the TGI in assay [1] is 72.1 µM; in assay [2], 54.7 µM; in assay [3] it was over 100 µM; in assay [4], 67.5 µM; in assay [5], 61.9 µM; in assay [6], 70 µM. In addition, the values for the TGI in assay [7], in [8] and in assay [9] were over 100 µM, over 100 µM and 93.1 µM, respectively.

As for `Cc1ccccc1NC(=O)C(=O)CC(=O)c1c(C)n([O-])c2ccccc2[n+]1=O`, the TGI in [1], in assay [2], in assay [10], in assay [4], in assay [6] and in [7] was over 100 µM each time. Besides, the TGI in assay [8] and in assay [9] was over 100 µM throughout.

`CCOC(=O)C(=Cc1cccnc1C)C(=O)OCC`: the TGI is 9.8 µM in assay [1]; 12.9 µM in assay [2]; over 100 µM in assay [3]; 18.9 µM in assay [10]; 14.2 µM in assay [5]; 31.8 µM in [6]. The TGI in [7] was found to be 31.3 µM; in [8], 24.2 µM; in [9] it was 18.4 µM.

Consider `NC(=O)c1c(NC(=O)c2ccc3c(c2)OCO3)sc2c1CCC(=O)C2`, for which the GI50 is 1.88 µM in [1]; 0.554 µM in assay [3]; 0.339 µM in assay [4]; 1.15 µM in [5]; 1.88 µM in assay [7]; 2.31 µM in assay [8]. In assay [9], the GI50 is 1.32 µM. Also, the TGI was 5.36 µM in assay [1]; 8.28 µM in [3]; 1.6 µM in assay [4]; over 100 µM in assay [5]; over 100 µM in [7]; 6.71 µM in [8]. Further, the TGI in assay [9] came to 5.64 µM.

As to `CN1CC[C@@H](c2c(O)cc(O)c3c(=O)cc(-c4ccccc4Cl)oc23)[C@@H]1CO`, the GI50 in assay [1] is 0.192 µM; in assay [2], 0.254 µM; in [3], 0.313 µM; in assay [10], 0.204 µM; in assay [4], 0.362 µM; in [6] it was 0.287 µM. Also, the GI50 was 0.305 µM in assay [7], 0.335 µM in assay [8] and 0.288 µM in assay [9]. Further, the TGI in assay [1] is 0.43 µM; in [2] it was over 9 µM; in [3] it was 1.99 µM; in assay [10] it was over 2.56 µM; in assay [4], 2.73 µM; in [6] it was over 10 µM. Besides, the results for the TGI in assay [7], in [8] and in assay [9] were 1.38 µM, over 10 µM and 3.03 µM, respectively.

With `C1=C2/CC[C@H](Sc3ccccc3)[C@H]2C2(CCCCC/1)OCCO2`, the TGI was over 100 µM in assay [2]; 65.7 µM in [3]; 63 µM in assay [10]; 83.1 µM in assay [4]; 39.5 µM in [5]; 79.6 µM in [6]. In addition, the TGI in assay [7], in assay [8] and in [9] was over 100 µM in each case.

With `C/C=C(/COC(C)=O)C(=O)OC1C=C(C=O)C(C)(C)C=C1C` (stereo not given), the TGI in assay [2], in assay [3], in assay [10], in assay [5], in assay [6] and in [7] was over 100 µM in each case. The TGI in [8] and in [9] was over 100 µM throughout.

Regarding `N#CC(c1nc2ccccc2nc1Cl)S(=O)(=O)c1ccccc1` (stereo not given), the TGI in assay [2], in [3], in [10], in assay [4], in assay [5] and in [6] was over 100 µM each time. The TGI in [7] and in assay [9] was over 100 µM throughout.

As for `O=C(COc1ccc(/C=C2\Oc3ccccc3C2=O)cc1)Nc1nc2c(s1)CCCC2`, the GI50 in [2] was 0.403 µM; in [3], 0.424 µM; in assay [10] it was 0.801 µM; in assay [4], 0.261 µM; in assay [5], 0.0175 µM; in assay [6] it was 51.2 µM. Also, the results for the GI50 in assay [8] and in assay [9] were 10.1 µM and 11.9 µM, respectively. In addition, the TGI in assay [2] was 27.5 µM; in assay [3] it was 1.31 µM; in assay [10], 8.28 µM; in assay [4] it was 1.12 µM; in assay [5] it was 0.0317 µM; in assay [6] it was over 100 µM. The TGI in assay [8] is 43.9 µM; in assay [9] it was over 100 µM.

As to `COc1ccc(C(=O)C(c2ccc(OC)cc2)C2(O)C(=O)Nc3c2ccc(Cl)c3C)cc1` (stereo not given), the TGI in assay [1], in [2], in assay [3], in [4], in assay [5] and in assay [6] was over 100 µM throughout. In addition, the TGI in [7], in assay [8] and in assay [9] was over 100 µM throughout.

Take `COC(=O)C1=CC2C(=O)OC1CC2C#N` (stereo not given): the TGI in assay [2], in assay [3], in [10], in assay [4], in [5] and in assay [7] was over 100 µM throughout. The TGI in [8] and in assay [9] was over 100 µM each time.

Regarding `CCOC(=O)NC(=O)c1cn(CCN2CCN(c3ncnc4nc[nH]c34)CC2)c(=O)[nH]c1=O`, the TGI in assay [1], in [2], in assay [3], in assay [4], in [5] and in assay [6] was over 100 µM in each case. Moreover, the TGI in [7], in [8] and in assay [9] was over 100 µM each time.

Regarding `COC(=O)c1cc(Cl)ccc1NC(=O)c1ccc([N+](=O)[O-])cc1`, the TGI in assay [1] is 65.6 µM; in assay [2], 51.7 µM; in [3], over 100 µM; in assay [10], 53.1 µM; in assay [4], 69.4 µM; in [6], over 100 µM. Moreover, the TGI came to 6.1 µM in assay [8] and 50.3 µM in [9].

Turning to `COc1ccc2ccccc2c1C1OC(=O)c2ccccc21` (stereo not given), the TGI in assay [2], in [3], in assay [10], in assay [4], in assay [5] and in assay [6] was over 100 µM throughout. The TGI in assay [7], in assay [8] and in assay [9] was over 100 µM throughout.

Consider `C1CN(SSN2CCOCC2)CCO1`, for which the GI50 in [1] was 21.8 µM; in assay [2], 43.6 µM; in assay [3], 32.2 µM; in assay [10], 33.7 µM; in assay [4] it was 27.4 µM; in assay [6], 39 µM. Also, the figures for the GI50 in assay [7], in assay [8] and in assay [9] were 47.6 µM, 32.4 µM and 22.5 µM, respectively. The TGI was 41.4 µM in [1]; over 100 µM in assay [2]; over 100 µM in assay [3]; over 100 µM in [10]; over 100 µM in assay [4]; over 100 µM in [6]. The TGI was over 100 µM in [7], over 100 µM in assay [8] and 55.9 µM in [9].

In the case of `O=C(Nc1ccc(Cl)c(Cl)c1)O/N=C\c1c(Cl)ccc([N+](=O)[O-])c1Cl`, the GI50 in assay [2] is 1.62 µM; in [3], 1.18 µM; in [10] it was 1.67 µM; in assay [4] it was 1.62 µM; in [5], 1.24 µM; in assay [6], 1.86 µM. The GI50 in assay [7] was 2.81 µM; in assay [8] it was 2.8 µM; in [9], 2.95 µM. Besides, the TGI was 3.21 µM in [2]; 3.13 µM in assay [3]; 3.38 µM in assay [10]; 4.3 µM in assay [4]; 2.76 µM in [5]; 3.84 µM in [6]. Besides, the TGI worked out at 9.63 µM in [7], 8.14 µM in assay [8] and 9.7 µM in [9].

`CCc1cccc(C)c1NC(=O)C(=O)Cc1nc2ccccc2s1`: the TGI in assay [1], in assay [2], in assay [3], in [10], in [7] and in [8] was over 100 µM throughout. For the same molecule, the TGI in [9] is over 100 µM.

`CC(C)c1cccc2sc(NC(=O)C(=O)C(C#N)c3cccc4ccccc34)nc12` (stereo not given): the TGI in [1] is 92.3 µM; in assay [2], over 100 µM; in assay [3], over 100 µM; in [10], over 100 µM; in assay [7] it was over 100 µM; in [8], over 100 µM. The same molecule came in with a TGI in [9] of over 100 µM.

As for `CCSCCCN(CCCSCC)CCCSCC`, the TGI in assay [2], in assay [3], in assay [5], in [6], in [7] and in assay [8] was over 100 µM throughout. In [9], this molecule registered a TGI of over 100 µM.

For the molecule `COC(=O)CCC(NC(=S)N/N=C/c1ccco1)C(=O)OC` (stereo not given), the TGI in assay [1], in assay [2], in [3], in assay [5], in assay [6] and in assay [7] was over 100 µM each time. The TGI in assay [8] and in [9] was over 100 µM in each case.

On to `O=C(c1ccccc1)c1cccc(C(=O)c2ccccc2)c1`, for which the TGI in assay [1], in assay [2], in assay [10], in assay [4], in [5] and in assay [7] was over 100 µM in each case. Also, the TGI in assay [8] and in assay [9] was over 100 µM in each case.

In the case of `O=C(Nc1cccc(NC(=O)Nc2cc(C(F)(F)F)ccc2Cl)c1)Nc1cc(C(F)(F)F)ccc1Cl`, the GI50 in [2] is 1.53 µM; in assay [10], 3.14 µM; in assay [4], 1.87 µM; in [5] it was 3.47 µM; in assay [6], 9.01 µM; in assay [7], 5.19 µM. The results for the GI50 in [8] and in assay [9] were 1.59 µM and 2.61 µM, respectively. In addition, the TGI in assay [2] is 57.1 µM; in assay [10], over 100 µM; in [4], 50.7 µM; in assay [5], 15.4 µM; in assay [6], over 100 µM; in [7] it was 34.2 µM. The values for the TGI in assay [8] and in assay [9] were 12.2 µM and 15.9 µM, respectively.

For `COc1cc(C2C(Cl)C(=O)N2NC(=O)c2ccc(N)cc2)ccc1O` (stereo not given), the TGI in assay [2] is over 100 µM; in [3] it was over 100 µM; in assay [10], 78.9 µM; in assay [4] it was over 100 µM; in assay [5], 32.1 µM; in [6], over 100 µM. The TGI in [8] is over 100 µM; in assay [9], 44.8 µM.

In the case of `O=[N+]([O-])c1cccc([As]=[As]c2cccc([N+](=O)[O-])c2)c1` (stereo not given), the GI50 is 0.0898 µM in assay [1]; 0.172 µM in assay [2]; 0.137 µM in assay [10]; 0.0495 µM in assay [4]; 0.0452 µM in assay [5]; 0.0891 µM in assay [6]. For the same molecule, the results for the GI50 in assay [7], in [8] and in [9] were 0.0819 µM, 0.178 µM and 0.182 µM, respectively. The TGI in [1] was 0.23 µM; in assay [2], 0.343 µM; in [10] it was 0.281 µM; in assay [4], 0.18 µM; in assay [5] it was 0.146 µM; in [6], 0.216 µM. In addition, the TGI in assay [7] was 0.228 µM; in assay [8] it was 0.34 µM; in assay [9], 0.384 µM.

As to `C/C(CC(=O)Nc1ccc(Cl)cc1)=N\NC(N)=S`, the TGI in assay [1], in assay [2], in assay [3], in [4], in assay [5] and in assay [6] was over 100 µM each time. Besides, the TGI in [7], in [8] and in assay [9] was over 100 µM each time.

As to `COc1ccc(OC)c2c1C(=O)C1CC1(Br)C2=O` (stereo not given), the TGI in assay [2], in assay [3], in assay [10], in assay [4], in assay [5] and in assay [6] was over 100 µM each time. For the same molecule, the TGI in [7], in assay [8] and in [9] was over 100 µM throughout.

The record behind these values is PubChem BioAssay (NCI).
